Assay results from patent publication US6423342B1, “Process for the preparation of a solid pharmaceutical dosage form” (R. P. Scherer Corporation, priority 1995, dated 2002).
Structures can show the parent of a compound that is named as a salt.

Key:
Assay type in all cases: physicochemical
[1] = Physical properties of the dosage form at varied citric acid level; settings: citric acid levels higher than 0.5%; causing, for instance, cracking and base melting
From the text: It can be seen that a minimum level of 0.5% citric acid is required to inhibit this loss of selegiline.

[2] = Solution pH of the dispersion at varied citric acid concentration
[3] = Effect of storage in frozen state prior to drying on selegiline HCl assay of fast-dispersing dosage forms
Experimental: (§1) 250 mg of the selegiline hydrochloride 2.0% dispersion formed in (a) above was dosed into each one of a series of pre-formed blister pockets having a pocket diameter of 12-mm. The blister laminate comprised 200 μm PVC/30 μm PE/PVDC 90 g per square metre. The product was frozen immediately in a liquid nitrogen freeze tunnel. The frozen product was then stored below −20° C. for a minimum of 24 hours prior to freeze-drying in a freeze drier using a drying temperature of +20° C. and a chamber pressure of 0.5 mbar. The freeze-dried units were then inspected for the presence of critical defects and the remainder of the batch sealed with lidding foil consisting of a paper/foil laminate (20 μm aluminium). Each blister was then coded with a batch number and over-wrapped in a preformed sachet by placing the blister in the sachet and sealing the open end of the sachet completely. Each sachet was then labeled with the product name, batch number, date of manufacture and suppliers name.
Two batches of selegiline fast-dispersing dosage forms manufactured as described in Example I were stored at different temperatures in the frozen state prior to drying.

[4] = Effect of pH modification (citric acid level) on stability of selegiline hydrochloride fast-dispersing dosage forms stored at 40° C./80% relative humidity; set-up: unit not given beside the values
Experimental: Gelatin (720 g) and mannitol (540 g) were dispersed in a portion of purified water (15.73 kg) by mixing thoroughly in the bowl of a vacuum mixer. The remaining water (1.5 litres) was added under vacuum while mixing using an anchor stirrer. The mix was then heated to 40° C.±2° C. and homogenized for ten minutes. The mix was cooled down to room temperature. When cooled, a 4500 g portion of the mix was removed into a stainless steel vessel and glycine (360 g), aspartame (90 g), grapefruit flavor (54 g), Opatint yellow (54 g) and citric acid (90 g) were then added sequentially to this portion while homogenizing using a bench top homogenizer. The remainder of the mix was transferred into a second stainless steel vessel. Selegiline hydrochloride (360 g) was then added to the mix in the second vessel and the mix homogenized for ten minutes using a bench top mixer to dissolve the drug. Once dispersion of the coloring agent was complete, the portion of the mix removed to the first vessel was returned to the mixer bowl together with the homogenized mix from the second vessel. The combined mixes were then mixed for at least 20 minutes. The bulk dispersion was then homogenized to ensure that mixing was complete.
as §1
A series of dosage forms were manufactured as described in Example 1 but the quantity of citric acid used was varied. The dosage forms were then stored at 40° C./80% relative humidity for up to 7 weeks and the quantity of selegiline hydrochloride in these dosage forms was assayed at regular intervals.

## C#CCN(C)C(C)Cc1ccccc1 (single isomer, unassigned; (-)) [selegiline hydrochloride, (−)-N,α-dimethyl-N-2-propynylphenethylamine]
[1]
  effect on the physical properties of the dosage form: deleterious effect
[2]; Conc. of citric acid 0 % w/w
  Solution pH: 5.38
[2]; Conc. of citric acid 0.25 % w/w
  Solution pH: 4.21
[2]; Conc. of citric acid 0.50 % w/w
  Solution pH: 3.82
[2]; Conc. of citric acid 1.0 % w/w
  Solution pH: 3.45
[2]; Conc. of citric acid 2.0 % w/w
  Solution pH: 3.11
[3]; Frozen storage temperature −20 ° C. prior to drying, 2 week
  Assay Selegiline HCI: 4.97 mg
[3]; Frozen storage temperature −20 ° C. prior to drying, 4 week
  Assay Selegiline HCI: 4.98 mg
[3]; Frozen storage temperature −20 ° C. prior to drying, Time = 0
  Assay Selegiline HCI: 5.01 mg
[3]; Frozen storage temperature −25 ° C. prior to drying, 1 week
  Assay Selegiline HCI: 4.85 mg
[3]; Frozen storage temperature −25 ° C. prior to drying, 2 week
  Assay Selegiline HCI: 4.79 mg
[3]; Frozen storage temperature −25 ° C. prior to drying, 4 week
  Assay Selegiline HCI: 4.74 mg
[3]; Frozen storage temperature −25 ° C. prior to drying, Time = 0
  Assay Selegiline HCI: 4.87 mg
[4]; citric acid 0 % w/w, solution pH 5.38, 1 week at 40° C./80% relative humidity
  quantity of selegiline hydrochloride in dosage form: 3.86
[4]; citric acid 0 % w/w, solution pH 5.38, 2 week at 40° C./80% relative humidity
  quantity of selegiline hydrochloride in dosage form: 3.31
[4]; citric acid 0 % w/w, solution pH 5.38, 4 week at 40° C./80% relative humidity
  quantity of selegiline hydrochloride in dosage form: 3.32
[4]; citric acid 0 % w/w, solution pH 5.38, Time = 0
  quantity of selegiline hydrochloride in dosage form: 4.79
[4]; citric acid 0.25 % w/w, solution pH 4.21, 1 week at 40° C./80% relative humidity
  quantity of selegiline hydrochloride in dosage form: 4.70
[4]; citric acid 0.25 % w/w, solution pH 4.21, 2 week at 40° C./80% relative humidity
  quantity of selegiline hydrochloride in dosage form: 4.67
[4]; citric acid 0.25 % w/w, solution pH 4.21, 4 week at 40° C./80% relative humidity
  quantity of selegiline hydrochloride in dosage form: 4.74
[4]; citric acid 0.25 % w/w, solution pH 4.21, 7 week at 40° C./80% relative humidity
  quantity of selegiline hydrochloride in dosage form: 4.65
[4]; citric acid 0.25 % w/w, solution pH 4.21, Time = 0
  quantity of selegiline hydrochloride in dosage form: 4.95
[4]; citric acid 0.50 % w/w, solution pH 3.82, 1 week at 40° C./80% relative humidity
  quantity of selegiline hydrochloride in dosage form: 4.98
[4]; citric acid 0.50 % w/w, solution pH 3.82, 2 week at 40° C./80% relative humidity
  quantity of selegiline hydrochloride in dosage form: 4.98
[4]; citric acid 0.50 % w/w, solution pH 3.82, 4 week at 40° C./80% relative humidity
  quantity of selegiline hydrochloride in dosage form: 4.98
[4]; citric acid 0.50 % w/w, solution pH 3.82, 7 week at 40° C./80% relative humidity
  quantity of selegiline hydrochloride in dosage form: 4.96
[4]; citric acid 0.50 % w/w, solution pH 3.82, Time = 0
  quantity of selegiline hydrochloride in dosage form: 5.05
[4]; citric acid 1.0 % w/w, solution pH 3.45, 1 week at 40° C./80% relative humidity
  quantity of selegiline hydrochloride in dosage form: 5.03
[4]; citric acid 1.0 % w/w, solution pH 3.45, 2 week at 40° C./80% relative humidity
  quantity of selegiline hydrochloride in dosage form: 5.04
[4]; citric acid 1.0 % w/w, solution pH 3.45, 4 week at 40° C./80% relative humidity
  quantity of selegiline hydrochloride in dosage form: 5.05
[4]; citric acid 1.0 % w/w, solution pH 3.45, 7 week at 40° C./80% relative humidity
  quantity of selegiline hydrochloride in dosage form: 5.00
[4]; citric acid 1.0 % w/w, solution pH 3.45, Time = 0
  quantity of selegiline hydrochloride in dosage form: 5.07
[4]; citric acid 2.0 % w/w, solution pH 3.11, 1 week at 40° C./80% relative humidity
  quantity of selegiline hydrochloride in dosage form: 4.99
[4]; citric acid 2.0 % w/w, solution pH 3.11, 2 week at 40° C./80% relative humidity
  quantity of selegiline hydrochloride in dosage form: 5.01
[4]; citric acid 2.0 % w/w, solution pH 3.11, 4 week at 40° C./80% relative humidity
  quantity of selegiline hydrochloride in dosage form: 5.02
[4]; citric acid 2.0 % w/w, solution pH 3.11, 7 week at 40° C./80% relative humidity
  quantity of selegiline hydrochloride in dosage form: 4.96
[4]; citric acid 2.0 % w/w, solution pH 3.11, Time = 0
  quantity of selegiline hydrochloride in dosage form: 5.04
